Reference: article PMC10458698, “Characterization of the interferences of systemic azole antifungal drugs with adrenal steroid biosynthesis using H295R cells and enzyme activity assays” (Current Research in Toxicology, 2023)
Read-outs that look alike come from different tables or passages of the source.

Columns and labels:
[1] = biological target: T1, CYP17A1 17α-hydroxylase (Homo sapiens, UniProt P05093); assay: CYP17A1 17α-hydroxylase activity assay, microsomes of transfected COS-1 cells; assay type: biochemical; conditions: cell-free
T1 construct: expressed in transfected cells; host or cells: COS-1 cells, transient transfection, microsomal fraction
T1 sequence (P05093 1-508): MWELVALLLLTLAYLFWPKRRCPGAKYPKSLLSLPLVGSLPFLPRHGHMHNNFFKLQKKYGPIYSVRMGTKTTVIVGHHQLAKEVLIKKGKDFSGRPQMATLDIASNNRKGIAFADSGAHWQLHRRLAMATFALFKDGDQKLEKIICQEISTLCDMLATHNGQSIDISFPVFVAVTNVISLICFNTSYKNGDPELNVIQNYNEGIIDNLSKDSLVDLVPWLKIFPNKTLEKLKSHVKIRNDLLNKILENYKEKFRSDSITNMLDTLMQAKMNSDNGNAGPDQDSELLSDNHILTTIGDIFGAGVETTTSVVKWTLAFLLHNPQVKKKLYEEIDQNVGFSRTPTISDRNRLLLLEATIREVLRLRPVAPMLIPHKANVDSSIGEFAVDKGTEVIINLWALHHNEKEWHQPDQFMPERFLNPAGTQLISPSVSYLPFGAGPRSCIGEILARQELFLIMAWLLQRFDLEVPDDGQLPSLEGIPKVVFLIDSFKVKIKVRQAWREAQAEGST
Method: (§1) Microsomes were prepared from COS-1 cells transiently transfected with plasmids for either CYP17A1 and POR for CYP17A1-hydroxylase assay (human CYP17A1 was available in our own plasmid collection after cloning into pcDNA3, POR was ordered from Genescript, Piscataway, USA, clone ID OHu25584C), CYP17A1, POR and cytochrome b5 for CYP17A1 17,20-lyase assay (cytochrome b5 was from Genescript, clone ID OHu09495D), POR and CYP21A2 (Genescript, CYP21A2 clone ID OHu18602D), or 3β-HSD2 (Genescript, clone ID OHu14034D). Transfection was performed using PEI and equal amounts of required plasmids with a total DNA amount of 8 µg per transfection of 3,000,000 cells. After overnight incubation, cells were washed with prewarmed PBS before adding ice-cold PBS. Cells were collected and centrifuged at 600 × g for 4 min at 4 °C, washed with ice cold PBS and centrifuged again. The pellet was resuspended in a resuspension buffer (20 mM Tris, pH 7.5, 50 mM KCl, 2 mM MgCl2, 0.25 M sucrose). Cells were disrupted with 30 S by a glass potter (2 cm^3) as described above. The homogenate was centrifuged for 20 min at 12,000 × g and 4 °C. Microsomes were pelleted by ultracentrifugation at 100,000 × g for 1 h at 4 °C. The pellet was resuspended in reaction buffer and the protein concentration determined using the Pierce Protein BCA kit as described above.
(§2) Microsomal protein (250 µg/mL) was preincubated with 1 mM NADPH and the compound of interest in reaction buffer for 10 min. The reaction was started by adding progesterone spiked with a radioactive tracer (final activity 0.025 mCi) to a final concentration of 500 nM. After 10 min of incubation at 37 °C the reaction was stopped by adding enzyme substrate and product at a final concentration of 1 mM in methanol, followed by shock-freezing in liquid nitrogen. Steroids were separated by thin layer chromatography on SIL G-25 UV254 TLC plates (Macherey-Nagel, Düren, Germany) using chloroform and ethyl acetate (1:4; v:v). Bands were excised and radiolabeled steroids analyzed by scintillation counting using […] Plus cocktail (Zinsser Analytic, Frankfurt am Main, Germany) and a β-counter (Packard, Connecticut, USA). Relative conversion was calculated based on total counts.

[2] = biological target: T2, CYP17A1 17,20-lyase (Homo sapiens, UniProt P05093); assay: CYP17A1 17,20-lyase activity assay, microsomes of transfected COS-1 cells; assay type: biochemical; conditions: for IC50: cell-free, 17α-hydroxypregnenolone 500 nM, 1 h
T2 construct: expressed in transfected cells; host or cells: COS-1 cells, transient transfection, microsomal fraction
T2 sequence (P05093 1-508): T1 sequence (P05093 1-508)
Method: as §1
Microsomes, 250 µg/mL, expressing CYP17A1, POR and cytochrome b5 were incubated in reaction buffer for 10 min with 1 mM NADPH and the azole antifungals. The reaction was started by adding 500 nM 17α-hydroxypregnenolone in a total reaction volume of 50 µL. After 1 h of incubation at 37 °C, the reaction was stopped adding 50 µL methanol. Samples were evaporated to dryness, reconstituted in 6 µL methanol, diluted 1:25 in water and the DHEA concentration was quantified using an ELISA kit (DEH3344, Demeditec, Kiel, Germany). Absorbance was measured using a BioTek Citation5 imaging reader.

[3] = system: H295R cells; assay: Steroidogenesis assay in forskolin-stimulated H295R cells, UHPLC-MS/MS; assay type: cell-based, human; conditions: forskolin-stimulated, 48 h, in words
Method: Briefly, 200,000 cells/mL between passages 5 and 10 were seeded in a 24-well plate. After 24 h, the medium was replaced by fresh medium containing reference or test compounds. […] As a time zero control, complete medium was incubated without cells. After 48 h of incubation, the cell culture supernatant was collected and stored at −20 °C until steroid quantification was performed by ultra-high liquid chromatography tandem mass spectrometry (UHPLC-MS/MS). All experiments were performed three times independently in technical duplicates.
Using water, the sample volume was adapted to 1 mL. Samples were extracted using Oasis HLB 3 cc SPE cartridge (30 mg, 30 μm particle size, Waters, Massachusetts, USA). Columns were preconditioned with 1 mL ethyl acetate and water prior to application of samples. After sample loading, columns were washed three times with 1 mL methanol (10% v/v) and water before samples were eluted applying 0.75 mL ethyl acetate twice. Eluates were evaporated to dryness and reconstituted in 50 µL methanol. Samples were applied to a reverse phase column (Waters Acquity UPLC BEH C18, 1.7 μm, 2.1 mm × 150 mm). […] Applied mobile phases consisted of water, acetonitrile and formic acid (95/5/0.1; v/v/v and 5/95/0.1; v/v/v). For data analysis, Hunter software version B.09.00 (Agilent Technologies) was used. Lower limit of detection (LOD), lower limit of quantification (LLOQ), and upper limit of quantification (ULOQ) are shown in Table 1.

[4] = biological target: T3, CYP21A2 (Homo sapiens, UniProt P08686); assay: CYP21A2 activity assay, microsomes of transfected COS-1 cells; assay type: biochemical; conditions: cell-free, progesterone 500 nM, 10 min
T3 construct: host or cells: COS-1 cells, transient transfection, microsomal fraction
T3 sequence (P08686 1-495): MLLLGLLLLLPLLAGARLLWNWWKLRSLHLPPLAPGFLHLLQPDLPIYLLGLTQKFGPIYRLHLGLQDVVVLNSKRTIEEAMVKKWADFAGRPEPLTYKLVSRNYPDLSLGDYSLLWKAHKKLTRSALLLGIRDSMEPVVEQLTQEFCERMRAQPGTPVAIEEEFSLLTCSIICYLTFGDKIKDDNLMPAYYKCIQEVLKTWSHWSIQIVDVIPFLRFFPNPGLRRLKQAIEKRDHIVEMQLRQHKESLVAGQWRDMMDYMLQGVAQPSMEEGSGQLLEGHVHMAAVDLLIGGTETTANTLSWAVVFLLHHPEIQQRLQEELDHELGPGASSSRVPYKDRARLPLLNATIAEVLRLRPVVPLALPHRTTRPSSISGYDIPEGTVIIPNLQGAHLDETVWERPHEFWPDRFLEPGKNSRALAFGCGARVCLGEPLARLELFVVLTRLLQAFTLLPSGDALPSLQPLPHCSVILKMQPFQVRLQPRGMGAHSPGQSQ
Method: as §1, §2

[5] = biological target: T4, CYP11A1 (Homo sapiens, UniProt P05108); assay: CYP11A1 assay based on mitochondrial fraction of V79-4 cells; assay type: biochemical; conditions: 10 µM, 20S-hydroxycholesterol 2 µM, 4 h, qualitative, assay of low sensitivity
T4 construct: host or cells: V79-4 cells (Chinese hamster), transient transfection, mitochondrial fraction
T4 sequence (P05108 40-521): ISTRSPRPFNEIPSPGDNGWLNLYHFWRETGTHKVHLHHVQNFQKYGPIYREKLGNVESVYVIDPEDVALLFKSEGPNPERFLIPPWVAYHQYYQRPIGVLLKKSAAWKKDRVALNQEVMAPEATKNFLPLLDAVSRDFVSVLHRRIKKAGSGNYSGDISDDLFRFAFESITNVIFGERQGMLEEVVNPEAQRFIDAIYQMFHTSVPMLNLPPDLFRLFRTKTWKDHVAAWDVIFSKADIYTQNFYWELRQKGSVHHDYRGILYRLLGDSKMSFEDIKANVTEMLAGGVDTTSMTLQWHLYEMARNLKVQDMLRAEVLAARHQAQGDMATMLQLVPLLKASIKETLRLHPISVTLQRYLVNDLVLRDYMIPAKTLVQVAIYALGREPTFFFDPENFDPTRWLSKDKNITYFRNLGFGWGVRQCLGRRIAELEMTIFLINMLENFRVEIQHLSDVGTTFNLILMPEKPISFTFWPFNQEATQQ
Method: Mitochondria were prepared as described previously with modifications ([Frezza et al., 2007]). Briefly, V79-4 cells (3,000,000) were seeded 4 h prior to transfection with 4 µg of expression plasmid for CYP11A1 and adrenodoxin (GeneScript Piscataway, USA, clone IDs OHu18602D and OHu55929D) using polyethylemine (PEI) in a PEI/DNA ratio of 3:1 (w/w). At 4 h post-transfection, medium was changed and cells were incubated overnight. Cells were collected in ice cold phosphate buffered saline (PBS) and centrifuged at 600 × g for 10 min at 4 °C. The pellet was resuspended in ice cold isolation buffer (10 mM Tris/MOPS, pH 7.4, 1 mM EGTA/Tris, pH 7.4, 200 mM sucrose in water) and transferred to a glass potter, followed by 35 S using a 2 cm^3 glass Teflon pestle. The homogenate was centrifuged for 10 min at 600 × g and 4 °C. The supernatant was collected and centrifuged for 10 min at 7000 × g at 4 °C. The pellet was washed and resuspended in 200 μL ice cold isolation buffer. After centrifugation, the pellet containing the mitochondrial fraction was resuspended in 30 μL reaction buffer (25 mM HEPES pH 7.4, 0.1 mM DTT, 0.1 mM EDTA, 4 mM MgCl2) and the protein content was determined by the BCA assay according to the manufacturer (Pierce BCA protein assay kit, Thermo Scientific, Rockford, USA). Bovine serum albumin provided with the kit was used as reference protein and absorbance was measured using a BioTek Cytation5 Imaging Reader (Agilent BioTek).
For the CYP11A1 activity assay, 500 µg/mL of freshly prepared mitochondrial fraction were pre-incubated on ice with reaction buffer, 1 mM NADPH and either vehicle (0.1% DMSO), 10 µM of the positive control ketoconazole ([Mast et al., 2013]) or the triazole antifungals for 10 min. The reaction was started by adding the substrate 20S-hydroxycholesterol at a final concentration of 2 µM in a reaction volume of 50 µL. After 4 h of incubation at 37 °C, the reaction was stopped by adding 50 µL methanol and shock-freezing in liquid nitrogen. Samples were stored at −80 °C until sample preparation for pregnenolone detection using an ELISA kit (Alpco, Salem, USA). Sample preparation included evaporation of samples to dryness, reconstitution in 6 µL methanol and 1:25 (v:v) dilution in water. The ELISA was performed according to the manufacturer and absorbance was measured using a BioTek Citation5 imaging reader.

[6] = design: method as in earlier work; conditions: ref Zhang et al., 2018, Märtson et al., 2019, Vena et al., 2020, Risum et al., 2021, cited from earlier work
[7] = system: 11β-HSD2; design: method as in Beck et al., 2017, Beck et al., 2020a; conditions: in words, ref Beck et al., 2017, Beck et al., 2020a; cited from earlier work
[8] = progesterone 500 nM, 10 min, read-out: IC50 CYP17A1 17α-hydroxylase mean

Row | inhibition of CYP11A1 activity [5] | inhibition of CYP17A1 17α-hydroxylase ([1]; in words) | lower inhibitory potency against 17,20-lyase than posaconazole ([2]; relative to posaconazole) | Compound | IC50 [1, 8] | IC50 ([1]; read-out: IC50 against 17α-hydroxylase) | IC50 [2] | effect on the steroid profile [3] | IC50 [4] | serum trough concentration ([6]; molar value in brackets) | serum trough concentration [6] | inhibition of 11β-HSD2 [7]
1 |  |  |  | CCCN(CCOc1c(Cl)cc(Cl)cc1Cl)C(=O)n1ccnc1 [prochloraz] | 90 nM | 94.5 nM | 40 nM | significant accumulation of progesterone | 210 nM |  |  | 
2 | weak inhibitory effect |  |  | CC(=O)N1CCN(c2ccc(OCC3COC(Cn4ccnc4)(c4ccc(Cl)cc4Cl)O3)cc2)CC1 (centres unmarked) [ketoconazole] |  |  |  |  |  |  |  | 
3 |  | very weakly | 10 times | CC(O)C(C)n1ncn(-c2ccc(N3CCN(c4ccc(OCC5COC(Cn6cncn6)(c6ccc(Cl)cc6Cl)O5)cc4)CC3)cc2)c1=O (centres unmarked) [OH-itraconazole, Hydroxyitraconazole] | 7160 nM |  | 2480 nM |  | > 10000 nM |  |  | 
4 |  |  |  | OC(Cn1cncn1)(Cn1cncn1)c1ccc(F)cc1F [fluconazole] | > 10000 nM |  | > 10000 nM | only minor effects on the steroid profile | > 10000 nM | ~3 µM | 11 µg/mL | inactive
5 |  |  |  | C[C@@H](c1ncncc1F)[C@](O)(Cn1cncn1)c1ccc(F)cc1F [voriconazole] | > 10000 nM |  | > 10000 nM | only minor effects on the steroid profile | > 10000 nM |  |  | inactive
